In ChEMBL document CHEMBL1201862, “PubChem BioAssay data set” (2004):
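These data come from cells grown in 96-well plates and exposed to compound for 48 hours at five concentrations. GI50: concentration for 50% inhibition of growth.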 Activity calls are given as the source filed them. Rule as the data show it: active = GI50 up to about 1.1 µM and inactive = higher.

What was measured:
Test in all cases: NCI tumour cell line growth inhibition, 48 h
UACC-257 = system: UACC-257
PC-3 = system: PC-3
MOLT-4 = system: MOLT-4
SF-268 = system: SF-268
UACC-62 = system: UACC-62
IGROV-1 = system: IGROV-1
T47D = system: T47D
TK-10 = system: TK-10
SK-MEL-2 = system: SK-MEL-2
HCT-116 = system: HCT-116
MDA-N = system: MDA-N
KM12 = system: KM12
HOP-62 = system: HOP-62
BT-549 = system: BT-549
SN12C = system: SN12C
Malme-3M = system: Malme-3M
SK-MEL-5 = system: SK-MEL-5
OVCAR-8 = system: OVCAR-8
NCI-H23 = system: NCI-H23
CAKI-1 = system: CAKI-1

SMILES	GI50 (UACC-257)	GI50 (PC-3)	GI50 (MOLT-4)	GI50 (SF-268)	GI50 (UACC-62)	GI50 (IGROV-1)	GI50 (T47D)	GI50 (TK-10)	GI50 (SK-MEL-2)	GI50 (HCT-116)	GI50 (MDA-N)	GI50 (KM12)	GI50 (HOP-62)	GI50 (BT-549)	GI50 (SN12C)	GI50 (Malme-3M)	GI50 (SK-MEL-5)	GI50 (OVCAR-8)	GI50 (NCI-H23)	GI50 (CAKI-1)
CC12CC1C(c1cccc([N+](=O)[O-])c1)(c1cccc([N+](=O)[O-])c1)N=N2 (configuration not stated)	28.1 µM (inactive)	25 µM (inactive)	28.3 µM (inactive)	27.7 µM (inactive)	15.9 µM (inactive)	20.3 µM (inactive)	25.8 µM (inactive)	27.8 µM (inactive)	44.7 µM (inactive)	15.8 µM (inactive)	23.2 µM (inactive)	19.6 µM (inactive)	> 100 µM (inactive)	18.5 µM (inactive)	25.6 µM (inactive)	18.2 µM (inactive)	26.8 µM (inactive)	25.1 µM (inactive)	19.1 µM (inactive)	
O=C1CC(NC(=O)C(F)(F)F)c2c1csc2Br (configuration not stated)	> 100 µM (inactive)	> 100 µM (inactive)	31.5 µM (inactive)	0.678 µM (active)	> 100 µM (inactive)	> 100 µM (inactive)	3.4 µM (inactive)	4.91 µM (inactive)	> 100 µM (inactive)	32.8 µM (inactive)	33.5 µM (inactive)	3.03 µM (inactive)	> 100 µM (inactive)	44.1 µM (inactive)	68.4 µM (inactive)	18.8 µM (inactive)	64.9 µM (inactive)	> 100 µM (inactive)	> 100 µM (inactive)	
[N-]=[N+]=Nc1cc(=O)[nH]nc1-c1ccccc1	> 100 µM (inactive)	> 100 µM (inactive)	> 100 µM (inactive)	> 100 µM (inactive)	> 100 µM (inactive)	> 100 µM (inactive)	> 100 µM (inactive)	> 100 µM (inactive)		> 100 µM (inactive)	> 100 µM (inactive)	> 100 µM (inactive)	> 100 µM (inactive)	> 100 µM (inactive)	> 100 µM (inactive)	> 100 µM (inactive)		> 100 µM (inactive)	> 100 µM (inactive)	
COC(=O)[C@@H]1N2C(=S)N(c3ccccc3)C(=O)[C@H]2SC1(C)C	> 100 µM (inactive)	> 100 µM (inactive)	> 100 µM (inactive)	> 100 µM (inactive)	> 100 µM (inactive)	> 100 µM (inactive)	> 100 µM (inactive)	> 100 µM (inactive)	> 100 µM (inactive)	> 100 µM (inactive)	> 100 µM (inactive)	> 100 µM (inactive)	> 100 µM (inactive)	> 100 µM (inactive)	> 100 µM (inactive)		> 100 µM (inactive)	> 100 µM (inactive)	> 100 µM (inactive)	> 100 µM (inactive)
Cc1ccc(C2=C(Cl)C(=O)C(c3ccc(C)cc3)=C(Cl)C2=O)cc1	> 100 µM (inactive)	> 100 µM (inactive)	> 100 µM (inactive)	> 100 µM (inactive)	> 100 µM (inactive)	> 100 µM (inactive)	> 100 µM (inactive)	> 100 µM (inactive)		> 100 µM (inactive)	> 100 µM (inactive)	> 100 µM (inactive)	> 100 µM (inactive)	> 100 µM (inactive)	> 100 µM (inactive)	> 100 µM (inactive)	> 100 µM (inactive)	> 100 µM (inactive)	> 100 µM (inactive)	> 100 µM (inactive)
S=c1[nH]c2c(Cl)c(Cl)c(Cl)c(Cl)c2[nH]1	19.4 µM (inactive)	22.2 µM (inactive)	4.8 µM (inactive)	12.1 µM (inactive)	15.2 µM (inactive)	14.1 µM (inactive)	52.5 µM (inactive)	22 µM (inactive)		21.1 µM (inactive)	17.3 µM (inactive)	15.5 µM (inactive)	25.1 µM (inactive)	17.9 µM (inactive)	20.6 µM (inactive)	14.9 µM (inactive)	17.6 µM (inactive)	23.2 µM (inactive)	29.2 µM (inactive)	25.7 µM (inactive)
